“And” between values parts separate entries of the source, which are not always exact repeats. Equal values may be shown once. Where a name gives a salt, the structure may show the parent alone.
Tests used:
Type in all cases: in vivo, human
[1] = Blood pressure and heart rate after topical application on the nipple-areola complex (Example 2)
Description: A study of the blood pressure and heart rate of five patients receiving topical application on the nipple-areola complex was made. The composition applied was 0.1 mL of a 10% phenylephrine solution for a total dosage of 10 mg phenylephrine HCl. Blood pressure and heart rate were measured at baseline (T=0), after 15 minutes and 30 minutes.

[2] = test system: skin on the subjects forearm; experiment: pH pilot study, pilomotor effect on forearm skin (Example 6); conditions: 10% solution
Description: A pilot study was conducted to assess the optimal pH of topical phenylephrine solution required to elicit smooth muscle contraction on the skin. A series of 10% phenylephrine solutions were prepared in phosphate buffer solutions of varied pH. pH 4.6, 4.8, 5.0, 5.2, 5.4, 5.6, 5.8, 6.0, 6.2, 6.4, and 6.6 were used. Areas of skin on the subjects forearm were marked with a surgical pen. 50 microliter of each solution were applied to the marked area of skin and allowed to dry. After one hour the sites of application were visually inspected for the appearance of the pilomotor effect (i.e., “goose bumps”).

nipple areola complex [3] = experiment: Restoration of nipple sensitivity post breast surgery, case study (Example 11); conditions: Likert scale (1-10), 45 minutes after 10% solution, single patients; Hydrochloride
Description: A case study was conducted to assess the efficacy of a topical phenylephrine solution in increasing nipple sensitivity in patients that reported a loss in nipple sensitivity post breast surgery. Five subjects ages 36-65 participated in the study. Subjects were asked to rate their nipple sensitivity on a Likert scale (1-10) before surgery and currently (i.e., after surgery). Next, patients were asked to apply a 10% phenylephrine solution to each nipple areola complex. 45 minutes after application of the drug, patients were asked again to rate their nipple sensitivity on a Likert scale (1-10).

nipple areola complex [4] = experiment: Blinded study of 10%, 15%, 20% phenylephrine on the NAC: erection, sensitivity, lubrication, arousal (Example 12); conditions: for Arousal / Lubrication: 60 minutes, change from baseline; for Responders, Arousal / Responders, Lubrication: 20 patients; for Erection: 1 = erection reported
Description: 20 healthy, pre-menopausal females were recruited to the study. Subjects were instructed to apply either 4 or 6 drops of an investigational drug to each nipple areola complex. Baseline blood-pressure, heart rate, nipple erection, nipple sensitivity, genital lubrication and arousal were measured and recorded. 30 minutes later, blood pressure and heart rate were measured and recorded. 60 minutes later, blood-pressure, heart rate, nipple erection, nipple sensitivity, genital lubrication and arousal were measured and recorded.
During the study, four parameters of efficacy were measured: nipple erection, nipple sensitivity, genital lubrication, and arousal. Efficacy parameters were all patient reported outcomes measured at 0 and 60 minutes after the application of the investigational drug. Nipple erection was determined by asking the patient if they had experienced nipple erection during the 60 minutes after the application of the investigational drug. Nipple sensitivity was measured with a Likert scale of 1-10 (1 being “insensitive”, 10 being “extremely sensitive/bordering on pain”) at 0 and 60 minutes after the application of the investigational drug. Genital lubrication was measured with a Likert scale of 1-10 (1 being “none”, 10 being “excellent”) at 0 and 60 minutes after the application of the investigational drug. Arousal was measured with a Likert scale of 1-10 (1 being “none”, 10 being “extremely aroused”) at 0 and 60 minutes after the application of the investigational drug.
After a 48-hour washout period, subjects repeated the procedure using 4 or 6 drops of a new arm of the study. The subjects and the investigator were blinded to the drug assignment in each arm. In total 6 arms were tested:
Nipple erection data was scored “1” for a positive response to the question “Did you experience nipple erection after applying the solution?” It was scored “0” otherwise. Sensitivity data was tabulated by subtracting the patient reported nipple sensitivity at 60 minutes from the reported value at baseline. Subjects were asked to rate their level of nipple sensitivity on a scale of 1-10 (1 being “non-sensitive” and 10 being “extremely sensitive, bordering on pain.”) Subjects reporting a sensitivity increase greater than 2 after the application of each investigational drug were considered sensitivity responders.
Genital lubrication was measured with a Likert scale of 1-10 (1 being “none” and 10 being “excellent”) at 0 and 60 minutes after the application of the investigational drug. Arousal was measured with a Likert scale of 1-10 (1 being “none” and 10 being “extremely aroused”) at 0 and 60 minutes after the application of the investigational drug. […] A subject was considered a responder for genital lubrication if they reported a change in genital lubrication of 2 or more.
A subject was considered a responder for arousal if they reported a change in arousal of 2 or more.

[5] = 0.1 mL 10% solution on NAC, 15 minutes, single subjects, listed as PHCI, Hydrochloride
[6] = 0.1 mL 10% solution on NAC, 30 minutes, single subjects, listed as PHCI, Hydrochloride
[7] = 10% (Arm C), change of 2 or more
[8] = 15% (Arm D), single patients, Hydrochloride
[9] = 20% (Arm B), single patients, Hydrochloride

## CNC[C@H](O)c1cccc(O)c1 [Phenylephrine HCl, Phenylephrine Hydrochloride]
[1]; [5]
  BP (T = 15): 112/76 and 122/77 and 117/72 and 120/72 and 99/67
  HR (T = 15): 69 and 77 and 75 and 53 and 68
[1]; [6]
  BP (T = 30): 117/75 and 122/78 and 128/77 and 116/68 and 97/63
  HR (T = 30): 74 and 80 and 68 and 58 and 69
[1]; 0.1 mL 10% solution, five patients, 15 and 30 minutes
  change in blood pressure or heart rate: No significant change in blood pressure or heart rate
[2]; pH 4.6, 50 microliter on forearm
  Results after 1 hour (pilomotor effect): None
[2]; pH 4.8
  Results after 1 hour (pilomotor effect): Slight
[2]; pH 5.0
  Results after 1 hour (pilomotor effect): Strong
[2]; pH 5.2
  Results after 1 hour (pilomotor effect): Strong
[2]; pH 5.4
  Results after 1 hour (pilomotor effect): Strong
[2]; pH 5.6
  Results after 1 hour (pilomotor effect): Slight
[2]; pH 5.8
  Results after 1 hour (pilomotor effect): Slight
[2]; pH 6.0
  Results after 1 hour (pilomotor effect): None
[2]; pH 6.2
  Results after 1 hour (pilomotor effect): None
[2]; pH 6.4
  Results after 1 hour (pilomotor effect): None
[2]; pH 6.6
  Results after 1 hour (pilomotor effect): None
Nipple areola complex [3]
  Nipple Sensitivity, Post-Surgery + Drug: 6 (2×) and 1 and 8 (2×)
Nipple areola complex [4]; 10% (Arm C)
  Percent responders, Arousal: 0%
  Percent responders, Lubrication: 5%
Nipple areola complex [4]; 10% (Arm C), Likert 1-10, single patients
  Arousal: 0
Nipple areola complex [4]; 10% (Arm C), Likert 1-10, single patients, Hydrochloride
  Lubrication: 0 (17×) and 1 (2×) and 2
Nipple areola complex [4]; [7]
  Responders, Arousal: 0
  Responders, Lubrication: 1
Nipple areola complex [4]; 10%, four drops
  % Responders, Erection: 37%
  % Responders, Sensitivity: 16%
Nipple areola complex [4]; 10%, four drops (0.114 mL) per NAC, 0 otherwise, single patients, listed as PE, Hydrochloride
  Erection: 0 (11×) and 1 (8×)
Nipple areola complex [4]; 10%, four drops, 19 patients
  Responders, Erection: 7
  Responders, Sensitivity: 3
Nipple areola complex [4]; 10%, four drops, change baseline to 60 minutes, scale 1-10, single patients, listed as PE, Hydrochloride
  Sensitivity: 1 (7×) and 0 (9×) and 5 and 2 (2×)
Nipple areola complex [4]; 10%, six drops
  % Responders, Erection: 50%
  % Responders, Sensitivity: 44%
Nipple areola complex [4]; 10%, six drops (0.170 mL) per NAC, single patients, listed as PE, Hydrochloride
  Erection: 1 (8×) and 0 (8×)
Nipple areola complex [4]; 10%, six drops, 16 patients
  Responders, Erection: 8
  Responders, Sensitivity: 7
Nipple areola complex [4]; 10%, six drops, change baseline to 60 minutes, scale 1-10, single patients, listed as PE, Hydrochloride
  Sensitivity: 4 (2×) and 0 (6×) and 1 (3×) and 3 (2×) and 2 (3×)
Nipple areola complex [4]; 15% (Arm D)
  Percent responders, Arousal: 0%
  Percent responders, Lubrication: 10%
  Responders, Arousal: 0
  Responders, Lubrication: 2
Nipple areola complex [4]; [8]
  Arousal: 0 (19×) and −1
  Lubrication: 0 (15×) and 2 and 1 (3×) and 3
Nipple areola complex [4]; 15%, four drops
  % Responders, Erection: 42%
  % Responders, Sensibility: 53%
Nipple areola complex [4]; 15%, four drops, 19 patients
  Responders, Erection: 8
  Responders, Sensibility: 10
Nipple areola complex [4]; 15%, four drops, single patients, listed as PE, Hydrochloride
  Erection: 0 (11×) and 1 (8×)
Nipple areola complex [4]; 15%, four drops, change baseline to 60 minutes, scale 1-10, single patients, listed as PE, Hydrochloride
  Sensibility: 0 (7×) and 2 (5×) and 5 and 1 (2×) and 3 (3×) and 9
Nipple areola complex [4]; 20% (Arm B)
  Percent responders, Arousal: 0%
  Percent responders, Lubrication: 20%
  Responders, Arousal: 0
  Responders, Lubrication: 4
Nipple areola complex [4]; [9]
  Arousal: 0 (19×) and 1
  Lubrication: 0 (15×) and 2 (3×) and 1 and 3
Nipple areola complex [4]; 20%, four drops
  % Responders, Erection: 68%
  % Responders, Sensitivity: 42%
Nipple areola complex [4]; 20%, four drops, 19 patients
  Responders, Erection: 13
  Responders, Sensitivity: 8
Nipple areola complex [4]; 20%, four drops, single patients, listed as PE, Hydrochloride
  Erection: 1 (13×) and 0 (6×)
Nipple areola complex [4]; 20%, four drops, change baseline to 60 minutes, scale 1-10, single patients, listed as PE, Hydrochloride
  Sensitivity: 0 (7×) and 1 (4×) and 2 (5×) and 4 (2×) and 9
